{"source": "paper PMC3518266", "about": "(Chemistry & biology, 2010)", "origin": "cited, not measured here", "biological_target": "hevamine", "settings": "competitive inhibition of hevamine; ref Vaaje-Kolstad et al., 2004; cited from earlier work", "note": "pKi: −log10 of the molar value.", "data": [{"smiles": "CC(=O)N[C@H]1[C@H](O[C@H]2[C@@H](O)[C@@H](NC(C)=O)[C@H](O[C@H]3[C@H](O)[C@H]4N=C(N(C)C)O[C@H]4[C@@H]3CO)O[C@@H]2CO)O[C@H](CO)[C@@H](O)[C@H]1O", "note": "[allosamidin]", "values": [{"measurement": "pKi", "result": 5.51}]}]}
